Data from article PMC8814031, “Synthesis and characterization of novel combretastatin analogues of 1,1-diaryl vinyl sulfones, with antiproliferative potential via in-silico and in-vitro studies” (Scientific Reports, 2022).
Like-named read-outs stand apart in the source and are kept apart here.

Assays:
A549 (lung cancer) cells = assay: MTT antiproliferative assay, A549; assay type: cell-based; details: Homo sapiens, 48 h, mean ± SEM of three experiments, read-out: IC50 values against selected human cancer cell lines, A549
Procedure: These cancer cell lines were obtained from the American Type Culture Collection (ATCC), Manassas, VA, USA, and stored before use.
The pale yellow coloured tetrazolium salt (MTT) reduced to a dark blue water-insoluble formazan by metabolically active cells and the product was measured quantitatively after solubility in DMSO. The absorbance of the soluble formazan is directly proportional to the number of viable cells. A panel of four cancer cell lines were used for testing the in-vitro cytotoxicity. These cell lines were grown in Dulbecco’s modified Eagle’s medium (DMEM) containing non-essential amino acids and 10% FBS. […] The 96-well micro titre plates were incubated for 24 h prior to addition of the experimental compounds. […] The supernatant was aspirated and plates were air dried and the MTT-formazan crystals were dissolved in 100 µL of DMSO.
The optical density (O.D) was measured at 570 nm using TECAN multimode reader (Infinite® M200Pro, Tecan, Switzerland). The percent cell viability of each treated well of 96 well plate was calculated based on test wells relative to control wells. Doxorubicin was used as positive controls for comparison purpose and 1% DMSO as a vehicle control.

[1] = test system: MDA-MB 231 (breast cancer) cells; assay: MTT antiproliferative assay, MDA-MB 231; assay type: cell-based; details: mean ± SEM of three experiments, read-out: IC50 values against selected human cancer cell lines, MDA-MB 231
Description: (§1) A panel of four cancer cell lines used for testing the in-vitro cytotoxicity include: MDA-MB-231 derived from human breast adenocarcinoma cells (ATCC No HTB-26), HeLa derived from human cervical cancer cells (ATCC No. CCL-2), A549 derived from human alveolar adenocarcinoma epithelial cells (ATCC No. CCL-185) and IMR-32 derived from human neuroblastoma cell line (ATCC No CCL-127), with a normal cell line HEK-293 (human embryonic kidney cell). These cancer cell lines were obtained from the American Type Culture Collection (ATCC), Manassas, VA, USA, and stored before use.
(§2) The cytotoxicity of synthesized compounds 4A–V were determined in triplicates by 3-[4,5-dimethylthiazol-2-yl]-2,5-diphenyltetrazolium bromide (MTT) assay[51]^,[52]. The pale yellow coloured tetrazolium salt (MTT) reduced to a dark blue water-insoluble formazan by metabolically active cells and the product was measured quantitatively after solubility in DMSO. The absorbance of the soluble formazan is directly proportional to the number of viable cells. A panel of four cancer cell lines were used for testing the in-vitro cytotoxicity. These cell lines were grown in Dulbecco’s modified Eagle’s medium (DMEM) containing non-essential amino acids and 10% FBS. All the cells were maintained under humidified conditions of 5% CO2 atmosphere at 37 °C in a CO2 incubator (Model Galaxy 170S, Eppendorf, USA). The 96-well micro titre plates were incubated for 24 h prior to addition of the experimental compounds. Cells were treated with vehicle alone (DMSO) or compounds (drugs (1 µg/mL) were dissolved in 100 µL DMSO previously) at different concentrations (0.1, 1, 10 and 25 µM) of test compounds for 48 h. The assay was completed with the addition of MTT (5%, 10µL) and incubated for 60 min at 37 °C. The supernatant was aspirated and plates were air dried and the MTT-formazan crystals were dissolved in 100 µL of DMSO.
(§3) The optical density (O.D) was measured at 570 nm using TECAN multimode reader (Infinite® M200Pro, Tecan, Switzerland). The percent cell viability of each treated well of 96 well plate was calculated based on test wells relative to control wells. Doxorubicin was used as positive controls for comparison purpose and 1% DMSO as a vehicle control. The cytotoxicity of test compounds was expressed in terms of IC50 value, which is defined as a concentration of compound that produced 50% reduction absorbance relative to control, and the absorbance at 570 nm wavelength was recorded.

[2] = test system: HEK-293 (human embryonic kidney normal cell line); assay: MTT cytotoxicity assay, normal cell line HEK-293; assay type: cell-based; details: for IC50: normal cell line
Description: as §1, §2, §3

[3] = test system: IMR-32 (neuroblast cancer) cells; assay: MTT antiproliferative assay, IMR-32; assay type: cell-based; details: mean ± SEM of three experiments, read-out: IC50 values against selected human cancer cell lines, IMR32
Description: as §1, §2, §3

[4] = test system: HeLa (cervical cancer) cells; assay: MTT antiproliferative assay, HeLa; assay type: cell-based; details: 48 h, mean ± SEM of three experiments, read-out: IC50 values against selected human cancer cell lines, HeLa
Description: as §1, §2, §3

Row | SMILES | IC50 (A549 (lung cancer) cells) | IC50 ([1]; Homo sapiens, MDA-MB-231, 48 h) | melting point | IC50 ([3]; Homo sapiens, IMR-32, 48 h) | IC50 ([4]; Homo sapiens, HeLa) | IC50 ([1]; 48 h) | IC50 ([3]; 48 h) | IC50 [4] | IC50 ([2]; Homo sapiens, HEK293, 48 h) | IC50 ([2]; 48 h) | Cytotoxicity towards normal cell line HEK-293 (in words) ([2]; normal cells)
1 | COc1ccc(/C(=C/S(=O)(=O)c2ccc(C)cc2)c2cc(OC)c(OC)c(OC)c2)cc1 [Compound 4B] | 4.68 ± 0.46 µM | 14.6 ± 0.85 µM | 124 to 126 °C | 4.1 ± 0.96 µM | 8.59 ± 0.58 µM |  |  |  | > 25 µM |  | 
2 | COc1ccc(/C(=C/S(=O)(=O)c2ccc(C)cc2)c2cc(OC)c(OC)c(OC)c2)cc1OC [Compound 4D] | 5.52 ± 0.06 µM | 14.9 ± 1.54 µM | 173 to 175 °C | 6.25 ± 0.03 µM | 10.9 ± 0.54 µM |  |  |  | > 25 µM |  | 
3 | COc1cc(/C(=C\S(=O)(=O)c2ccc(C)cc2)c2ccc(C(F)(F)F)cc2)cc(OC)c1OC [Compound 4H] | 6.84 ± 0.7 µM | 15.9 ± 1.44 µM | 125 to 127 °C | 7.48 ± 0.13 µM | 9.62 ± 0.44 µM |  |  |  | > 25 µM |  | 
4 | COc1cc(/C(=C\S(=O)(=O)c2ccc(C)cc2)c2ccc(F)cc2F)cc(OC)c1OC [Compound 4I] | 13.1 ± 0.86 µM | 12.7 ± 0.4 µM | 113 to 115 °C | 15.1 ± 0.16 µM | 9.46 ± 0.4 µM |  |  |  | > 25 µM |  | 
5 | CCOc1ccc(F)c(/C(=C/S(=O)(=O)c2ccc(C)cc2)c2cc(OC)c(OC)c(OC)c2)c1 [Compound 4K] | 7.02 ± 0.84 µM | 13.6 ± 0.89 µM | 125 to 127 °C | 8.06 ± 0.09 µM | 9.5 ± 0.49 µM |  |  |  | > 25 µM |  | 
6 | COc1cc(/C(=C\S(=O)(=O)c2ccc(C)cc2)c2ccc(F)c(Cl)c2)cc(OC)c1OC [Compound 4L] | 8.54 ± 0.85 µM | 13.4 ± 1.49 µM | 123 to 125 °C | 5.12 ± 0.36 µM | 8.74 ± 0.49 µM |  |  |  | > 25 µM |  | 
7 | COc1cc(/C(=C\S(=O)(=O)c2ccc(C)cc2)c2ccc(Cl)cc2)cc(OC)c1OC [Compound 4M] | 5.12 ± 0.08 µM | 11.1 ± 1.5 µM | 96 to 98 °C | 6.79 ± 0.44 µM |  |  |  |  | > 25 µM |  | 
8 | COc1cc(/C(=C\S(=O)(=O)c2ccc(C)cc2)c2ccc(Cl)c(Cl)c2)cc(OC)c1OC [Compound 4N] | 6.79 ± 0.19 µM | 9.85 ± 0.72 µM | 151 to 153 °C | 9.14 ± 0.84 µM | 9.64 ± 0.96 µM |  |  |  | > 25 µM |  | 
9 | COc1cc(/C(=C\S(=O)(=O)c2ccc(C)cc2)c2ccc(C#N)cc2)cc(OC)c1OC [Compound 4O] | 9.14 ± 0.91 µM | 12.4 ± 1.67 µM | 165 to 167 °C | 9.08 ± 0.07 µM | 9.83 ± 0.76 µM |  |  |  | > 25 µM |  | 
10 | COc1cc(/C(=C\S(=O)(=O)c2ccc(C)cc2)c2cccc(C(F)(F)F)c2F)cc(OC)c1OC [Compound 4Q] |  |  |  |  |  | 12.2 ± 1.61 µM | 7.46 ± 0.61 µM | 10.7 ± 0.74 µM |  | > 25 µM | 
11 | COc1cc(/C(=C\S(=O)(=O)c2ccc(C)cc2)c2ccc(C)c(F)c2)cc(OC)c1OC [Compound 4T] | 7.22 ± 0.81 µM | 10.4 ± 1.55 µM | 124 to 126 °C | 6.29 ± 0.07 µM | 8.39 ± 0.99 µM |  |  |  | > 25 µM |  | 
12 | COc1cc(/C(=C\S(=O)(=O)c2ccc(C)cc2)c2ccc(-c3ccccc3)cc2)cc(OC)c1OC [Compound 4U] | 11.1 ± 0.78 µM | 23.9 ± 1.56 µM | 132 to 134 °C | 11.8 ± 0.13 µM | 11.7 ± 0.81 µM |  |  |  | > 25 µM |  | 
13 | COc1cc(C#CS(=O)(=O)c2ccc(C)cc2)cc(OC)c1OC [Compound 4V] |  |  | 119 to 121 °C |  |  |  |  |  |  |  | showed some level of cytotoxicity

More lines, in order of falling IC50 ([1]; Homo sapiens, MDA-MB-231, 48 h), values ahead:

Row | IC50 (A549 (lung cancer) cells) | IC50 ([1]; Homo sapiens, MDA-MB-231, 48 h) | melting point | IC50 ([3]; Homo sapiens, IMR-32, 48 h) | IC50 ([4]; Homo sapiens, HeLa) | IC50 ([1]; 48 h) | IC50 ([3]; 48 h) | IC50 [4] | SMILES | IC50 ([2]; Homo sapiens, HEK293, 48 h) | IC50 ([2]; 48 h) | Cytotoxicity towards normal cell line HEK-293 (in words) ([2]; normal cells)
14 | 6.39 ± 0.68 µM | 19.4 ± 1.72 µM | 139 to 141 °C | 6.4 ± 0.82 µM | 9.4 ± 0.72 µM |  |  |  | COc1cc(/C(=C\S(=O)(=O)c2ccc(C)cc2)c2ccccc2)cc(OC)c1OC [Compound 4A, (Z)-1,2,3-trimethoxy-5-(1-phenyl-2-tosylvinyl)benzene] | > 25 µM |  | 
15 | 5.32 ± 0.92 µM | 14.1 ± 1.51 µM | 163 to 165 °C | 6.23 ± 0.09 µM | 11.1 ± 0.51 µM |  |  |  | COc1cc(OC)cc(/C(=C/S(=O)(=O)c2ccc(C)cc2)c2cc(OC)c(OC)c(OC)c2)c1 [Compound 4E] | > 25 µM |  | 
16 | 7.04 ± 0.08 µM | 13.6 ± 1.56 µM | 107 to 109 °C | 7.04 ± 0.83 µM | 10.6 ± 0.56 µM |  |  |  | COc1ccc(/C(=C/S(=O)(=O)c2ccc(C)cc2)c2cc(OC)c(OC)c(OC)c2)c(OC)c1 [Compound 4C] | > 25 µM |  | 
17 | 6.92 ± 0.65 µM | 13.2 ± 1.49 µM | 141 to 143 °C | 7.29 ± 0.46 µM | 8.73 ± 0.49 µM |  |  |  | COc1cc(/C(=C\S(=O)(=O)c2ccc(C)cc2)c2ccc(F)cc2)cc(OC)c1OC [Compound 4G] | > 25 µM |  | 
18 | 11.3 ± 0.83 µM | 13.1 ± 0.92 µM | 140 to 142 °C | 12.03 ± 0.02 µM | 9.98 ± 0.42 µM |  |  |  | COc1cc(/C(=C\S(=O)(=O)c2ccc(C)cc2)c2ccc(F)c(F)c2)cc(OC)c1OC [Compound 4J] | > 25 µM |  | 
19 | 7.46 ± 0.07 µM | 12.2 ± 0.54 µM |  | 6.14 ± 0.03 µM | 10.5 ± 1.03 µM |  |  |  | COc1cc(/C(=C\S(=O)(=O)c2ccc(C)cc2)c2cc(C)ccc2F)cc(OC)c1OC [Compound 4R] | > 25 µM |  | 
20 |  | 0.89 ± 0.02 µM |  | 0.23 µM | 1.68 ± 0.24 µM |  |  |  | COc1cccc2c1C(=O)c1c(O)c3c(c(O)c1C2=O)C[C@@](O)(C(=O)CO)C[C@@H]3O[C@H]1C[C@H](N)[C@H](O)[C@H](C)O1 [Doxorubicin, reference compound] |  |  | 
